Data reported in patent US20110281909A1, “SUBSTITUTED QUINOLINE DERIVATIVES AS H1 RECEPTOR ANTAGONISTS” (GLAXO GROUP LIMITED, priority 2007, published 2011).
Counter-ions that a name gives are not always drawn.

Key:
[1] = biological target: T1, human H1 receptor (Homo sapiens, UniProt P35367); experiment: Histamine H1 functional antagonist assay: antagonist duration after washout; type: cell-based; conditions: at one or more time points after washout
T1 construct: expressed in transfected cells
T1 sequence (P35367 whole entry): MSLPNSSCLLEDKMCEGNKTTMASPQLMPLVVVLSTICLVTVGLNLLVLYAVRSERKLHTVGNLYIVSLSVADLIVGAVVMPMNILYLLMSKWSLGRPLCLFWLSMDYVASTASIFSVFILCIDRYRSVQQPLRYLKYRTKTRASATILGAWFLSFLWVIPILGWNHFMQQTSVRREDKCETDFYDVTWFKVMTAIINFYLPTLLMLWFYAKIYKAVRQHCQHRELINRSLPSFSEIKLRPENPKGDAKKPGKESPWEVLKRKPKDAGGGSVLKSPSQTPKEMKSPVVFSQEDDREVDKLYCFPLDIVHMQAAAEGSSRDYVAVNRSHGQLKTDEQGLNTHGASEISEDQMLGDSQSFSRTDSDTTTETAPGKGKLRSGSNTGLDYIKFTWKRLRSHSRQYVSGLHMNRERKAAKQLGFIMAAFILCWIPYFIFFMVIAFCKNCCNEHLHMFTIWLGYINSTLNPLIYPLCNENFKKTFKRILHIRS
Description: The human H1 receptor is cloned using known procedures described in the literature [Biochem. Biophys. Res. Commun., 201(2):894 (1994)]. Chinese hamster ovary (CHO) cells stably expressing the human H1 receptor are generated according to known procedures described in the literature [Br. J. Pharmacol., 117(6):1071 (1996)]. […] Following the 30 min antagonist incubation period, the cells are washed two or three times with 200 μl of PBS and then 100 μl Tyrodes buffer is added to each well to initiate antagonist dissociation. […] After this period, the cells are challenged with histamine in the FLIPR™ as described above. The dose ratio at each time point is used to determine the fractional H1 receptor occupancy by the following equation: fractional receptor occupancy=(DR-1)/DR. The decrease in receptor occupancy over time approximates to a straight line and is analysed by linear regression. The slope of this straight line fit is used as an index of the dissociation rate of the antagonist. The dose ratios for antagonist treated cells and for antagonist treated and washed cells at each time point are used to calculate a relative dose ratio (rel DR) which is also used as an index of antagonist duration. […]

[2] = test system: histamine-induced congestion; experiment: Intranasal challenge method: whole body plethysmography; type: in vivo, Female Dunkin-Hartley guinea pigs; conditions: guinea pig, dosed intranasally at 1 mg/ml either 3 hr or 24 hr before histamine challenge
Description: Intranasal Challenge Method: Whole Body Plethysmography
Female Dunkin-Hartley guinea pigs 150-250 g are sensitised twice daily for 5 days (week 1) with ovalbumin (OVA) and aluminium hydroxide (Al(OH)3 or Alum) in physiological saline, 25 μl/nostril. Solution is made up at 20 μg/ml OVA, 180 mg/ml Alum.
Pretreatment with test compound is performed at various times prior to histamine challenge. Efficacy dose-response curves are determined 1 hr and/or 3 hr after dosing whereas duration of action may be studied up to 7 days post dose (for example, at 24 hours). Test compounds are formulated as solutions in 0.9% sterile saline or suspensions in 0.9% sterile saline/tween80. […]
After the stipulated pre-dose time has been reached, guinea pigs are re-anaesthetised with isoflurane and dosed with either 10 mM or 15 mM histamine or phosphate-buffered saline (PBS), (25 μl per nostril). […] Data are analysed using ANOVA with post-hoc Fishers LSD test (general linear models, Statistica®) and finally Hochberg adjustment. Inhibition of histamine-induced congestion is determined by statistically significant differences between the mean responses of compound pre-treated groups compared to the vehicle pre-treated, histamine-challenged group.

Structure (SMILES) | duration of action compared with azelastine in the histamine H1 functional antagonist assay [1] | inhibition of the response to histamine challenge (duration of action) in the intranasal challenge model [2]
CCCCc1cc(OC2CCN(CCCCNS(=O)(=O)CC(C)C)CC2)c2ncccc2c1 [Example 26, N-(4-{4-[(6-Butyl-8-quinolinyl)oxy]-1-piperidinyl}butyl)-2-methyl-1-propanesulfonamide, dihydrochloride salt] | longer duration of action than azelastine | 
CN1CCCC(n2nc(Cc3ccc(Cl)cc3)c3ccccc3c2=O)CC1 (centres unmarked) [azelastine] |  | failed to show a similar duration of action
